Experimental findings from patent publication US20120083522A1, “MODULATION OF INFLAMMATORY RESPONSES BY FACTOR XI” (Isis Pharmaceuitcals, inc., priority 2009, published 2012) are described below.

Data set [1] is described as follows: Colitis Study F: plasma ALT, AST, BUN, CREAT, CHOL, TBIL. The following applies: DSS-treated mice, 50 mg/kg s.c. twice a week for 3 weeks. It counts as in vivo, Swiss Webb mice. As for the experimental part:
In a first group of 8 Swiss Webb mice, 50 mg/kg of ISIS 404071 was injected subcutaneously twice a week for 3 weeks. Two control groups of 8 mice each were injected with PBS twice a week for 3 weeks. After the oligonucleotide treatment, 4% DSS in water was administered ad libitum for 7 days to the experimental group and one PBS control group. Mice were sacrificed at the end of the study on day 7 after DSS was administered.
Plasma levels of aminotransferases (ALT and AST), blood urea nitrogen (BUN), creatinine (CREAT), cholesterol (CHOL) and total bilirubin (TBIL) were measured after treatment and are shown in Table 47.

Data set [2] deals with OVA/alum-induced asthma model. The data set is described as follows: OVA-induced asthma model: BAL eosinophil recruitment (Example 13). The class given is in vivo, BALB/c mice. As for the experimental part:
The effect of antisense oligonucleotide inhibition of Factor XI and its role in ameliorating asthma was evaluated in an OVA/alum-induced asthma model. Administration of ovalbumin to animals is a well known method to induce […] and has been previously described by Henderson et al. (J. Exp. Med., 1996, 184: 1483-1494).
The mice were divided into four treatment groups of 5 mice each. One group received subcutaneous injections of ISIS 404071 at a dose of 50 mg/kg twice a week for 4 weeks. One group of mice received subcutaneous injections of control oligonucleotide, ISIS 421208, which is a mismatch oligonucleotide sequence of ISIS 404071, at a dose of 50 mg/kg twice a week for 4 weeks. Two groups of mice received subcutaneous injections of PBS twice a week for 4 weeks. One PBS group remained untreated and served as the control group. The second PBS group and both the oligonucleotide treated groups were injected with OVA/alum on days 0 and 14 and nebulized with OVA in PBS on days 24, 25, and 26. The first OVA application served to sensitize the mice against OVA while the second was a challenge application to provoke an asthmatic reaction. Two days following the final dose, the mice were euthanized, bronchial lavage (BAL) was collected and analyses done.
Bronchial asthma, even in its mild form, is characterized by local infiltration and activation of inflammatory and immunoeffector cells, including T lymphocytes, macrophages, eosinophils, and mast cells (Smith D. L. et al., Am. Rev. Respir. Dis. 1993. 148: 523-532). The effect of treatment with ISIS 404071 on bronchoalveolar lavage (BAL) eosinophil recruitment was assessed. BAL cells were stained with hemotoxylin and eosin (H&E). The results are presented in Table 49 as a percentage of total cells in BAL.

In the oligonucleotide strings, read from the 5' end, every base follows the letter of its sugar. An asterisk marks phosphorothioate; unmarked linkages are phosphodiester. Other units and linkages are bracketed, terminal groups are in braces. A string of capitals states the bases alone. e = 2'-O-(2-methoxyethyl) (MOE); [5mC] = 5-methylcytosine; d = 2'-deoxy (DNA)

Consider “TGGTAATCCACTTTCAGAGG (eT*eG*eG*eT*eA*dA*dT*d[5mC]*d[5mC]*dA*d[5mC]*dT*dT*dT*d[5mC]*eA*eG*eA*eG*eG) [ISIS 404071, 5-10-5 MOE gapmer targeting murine Factor XI, target start site 869]”, for which, in data set [1], the “Plasma ALT” value amounted to 133.6 U/L, the “Plasma AST” value was found to be 339.3 U/L, the “Plasma BUN” value was 29.5 mg/dL and the “Plasma CHOL” value is 170.3 mg/dL. In data set [1], the “Plasma TBIL” value was found to be 0.7 mg/dL. Besides, the “BAL eosinophil recruitment (in words)” value in data set [2] is “decreased the eosinophil recruitment”. Also, in data set [2] (percentage of total cells in BAL, 50 mg/kg s.c. twice a week for 4 weeks), the Eosinophils is given as 32%.
